Laboratory results: US7875648B2, “N-(dibenz(b,f)oxepin-10-ylmethyl)-N-methyl-N-prop-2-ynylamine (omigapil) for the treatment of congenital muscular dystrophy or myopathy resulting from collagen VI deficiency” (Santhera Pharmaceuticals (Schweiz) AG, priority 2006, dated 2011)

Columns and labels:
[1] = system: glyceraldehyde-3-phosphate dehydrogenase (GAPDH); conditions: reported in J. Biol. Chem. 273:5821-5828; cited from earlier work
[2] = system: homozygous col6a1-/- mice (Col6a1-deficient mouse model), diaphragm muscle; experiment: Apoptotic (TUNEL-positive) nuclei in diaphragm muscle of col6a1-/- mice; format: in vivo; conditions: 5 days
Text: (§1) Homozyguous col6a1−/− mutants lack triple-helical collagen VI resulting in a phenotype that resembles BM/UCMD in human patients with collagen VI deficiency. Specifically, col6a1−/− mice show histological features of myopathy such as fiber necrosis and phagocytosis and a pronounced variation in fiber diameter. Muscles also show signs of stimulated regeneration of fibers and necrotic fibers are particularly frequent in the diaphragm thereby resembling more the clinical picture of UCMD than BM (Bertini E., Pepe G. (2002) Collagen type VI and related disorders: Bethlem myopathy and Ullrich scleroatonic muscular dystrophy Europ. J. Paediatric Neurology 6:193-198). […] This mitochondrial dysfunction might be caused by slight increase in of sarcolemmal calcium influx followed by calcium overload eventually causing opening of the mitochondrial permeability transition pore (MPTP) and finally apoptosis.
The effect of N-(dibenz(b,f)oxepin-10-ylmethyl)-N-methyl-N-prop-2-ynylammonium maleate (omigapil) was tested on the number of apoptotic nuclei in muscle of a Col6a1-deficient mouse model. Starting at 16±4 weeks of age, homozygous col6a1−/− mice were treated with omigapil. For this, omigapil was dissolved in 1% w/v ethanol to a final concentration of 20 μg/ml. Mutant mice received a final dose of 1 mg/kg or 10 mg/kg omigapil given twice daily by gavage following the guidance as described elsewhere (Sagot Y. et al. (2000) An orally active anti-apoptotic molecule (CGP 3466B) preserves mitochondria and enhances survival in an animal model of motoneuron disease. Br. J. Pharmacol. 131:721-728). For comparison col6a1−/− mice received the equivalent amount of vehicle only. After five days of application mice were sacrificed, the diaphragm removed, sectioned and stained for apoptotic nuclei using TUNEL staining. The number of apoptotic nuclei per mm2 area in the diaphragm muscle was determined as described (Irwin W A et al. (2003) Mitochondrial dysfunction and apoptosis in myopathic mice with collagen VI deficiency. Nature Genetics 35:367-371).

[3] = system: Col6a1-deficient mice, mitochondria in muscle fibers of the diaphragm muscle; experiment: Ultrastructural appearance of mitochondria in diaphragm muscle fibers of Col6a1-deficient mice; format: in vivo, mouse; conditions: for percentage of myofibers with pathologically altered mitochondria vs vehicle-treated animals: Col6a1-deficient mice, diaphragm, FIG. 2
Text: as §1
The effect of N-(dibenz(b,f)oxepin-10-ylmethyl)-N-methyl-N-prop-2-ynylammonium maleate (omigapil) was tested on the effect to normalize ultrastructural defects in mitochondria of a Col6a1-deficient mouse model. For this, Col6a1-deficient mice were treated with omigapil as described in Example 1.
The ultrastructural appearance of mitochondria in muscle fibers of the diaphragm muscle was determined and quantified as described (Irwin W A et al. (2003) Mitochondrial dysfunction and apoptosis in myopathic mice with collagen VI deficiency. Nature Genetics 35:367-371).

| Molecule | binding to glyceraldehyde-3-phosphate dehydrogenase (GAPDH) [1] | number of apoptotic nuclei in diaphragm muscle (TUNEL staining) vs vehicle-treated col6a1-/- mice ([2]; 1 mg/kg twice daily by gavage, N=3, FIG. 1) | number of apoptotic nuclei in diaphragm muscle (TUNEL staining) vs vehicle-treated col6a1-/- mice ([2]; 10 mg/kg twice daily by gavage, N=4, FIG. 1) | number of apoptotic nuclei in omigapil-treated animals relative to wild-type animal ([2]; omigapil-treated, diaphragm muscle) | ultrastructural appearance of mitochondria in muscle fibers of the diaphragm muscle ([3]; Col6a1-deficient mice treated as in Example 1) | percentage of myofibers with pathologically altered mitochondria vs vehicle-treated animals ([3]; 1 mg/kg (animals B1-B2)) | percentage of myofibers with pathologically altered mitochondria vs vehicle-treated animals ([3]; 10 mg/kg (animals A1-A3)) |
| --- | --- | --- | --- | --- | --- | --- | --- |
| C#CCN(C)CC1=Cc2ccccc2Oc2ccccc21 [compound of formula (I), N-(dibenz(b,f)oxepin-10-ylmethyl)-N-methyl-N-prop-2-ynylamine] | binds to glyceraldehyde-3-phosphate dehydrogenase (GAPDH) |  |  |  |  |  |  |
| N-(dibenz(b,f)oxepin-10-ylmethyl)-N-methyl-N-prop-2-ynylammonium maleate [omigapil] |  | significantly reduced | significantly reduced | comparable to the number seen in diaphragm muscle of a wild-type animal | normalized | clearly reduced | clearly reduced |
